# In publication PMC12671136, “Antimicrobial peptides disrupting the bacterial membrane reduce Salmonella colonization in chickens” (Microbiology Spectrum, 2025):
# Peptide text beside a SMILES is read from it.
# What was measured:
# Format in all cases: cell-based
# [1] = tested on: Salmonella Enteritidis (SE); settings: 12 h
# Procedure: (§1) The inhibitory effect of the peptides was assessed as described previously ([23]). ST was grown overnight and adjusted to 5 × 10^5 CFU/ml, and 100 µL of this measured concentration was placed into the wells of a 96-well plate. Peptides P1–P6 were added to the well at 12 mM concentration, and the plate was incubated in a TECAN Sunrise^TM absorbance microplate reader at 37°C, with kinetic absorbance measurements taken every 30 min for 12 h. The growth inhibitory activity was calculated with the formula (OD600 DMSO-treated well − OD600 peptide-treated well)/OD600 DMSO-treated well × 100%. Wells treated with DMSO and containing Salmonella, as well as sterile media wells without Salmonella, were used as controls. At least two independent experiments were conducted.
# (§2) MIC was determined as the peptide concentration at which no increase in growth (no increase in OD) was observed, indicating complete inhibition of ST growth. Additionally, to test the efficacy of peptides against another serovar, the assay was conducted using SE, with peptides added at 15 mM and 18 mM concentrations. Following incubation (37°C, 12 h), cultures were plated on the LB agar plate to confirm the bactericidal effect. At least two independent experiments were conducted.
# (§3) To analyze the perceived efficacy of arginine and lysine substitutes reported in previous studies ([36], [37]), specific amino acid residues in P1 and P2 were replaced with lysine or arginine and tested if the substitutions enhanced anti-Salmonella (ST and SE) activity. The MICs of the arginine or lysine substituted peptides ([…], […], […], KDENK, PDEKK, KDEKK) were determined as described above. At least two independent experiments were conducted.
# [2] = tested on: Salmonella Typhimurium (ST); settings: for MIC: murium (ST, 12 h)
# Procedure: as §1, §2, §3
# Salmonella Saintpaul = tested on: Salmonella Saintpaul
# Procedure: (§4) To further test the spectrum of the peptides’ anti-Salmonella capabilities, eight additional Salmonella serovars commonly implicated in foodborne illness (S. Anatum, S. Albany, S. Brenderup, S. Javiana, S. Heidelberg, S. Muenchen, S. Newport, S. Saintpaul) were investigated (Table S1). P1, P2, and P4 (selected based on dose-response assay results) were added to the assay at their MICs to determine their effect on different serovars. Inhibition was determined using the criteria described above.
# Salmonella Muenchen = tested on: Salmonella Muenchen
# Procedure: as §4
# Salmonella Javiana = tested on: Salmonella Javiana
# Procedure: as §4
# Salmonella Anatum = tested on: Salmonella Anatum
# Procedure: as §4
# Salmonella Albany = tested on: Salmonella Albany
# Procedure: as §4
# Salmonella Brenderup = tested on: Salmonella Brenderup
# Procedure: as §4
# Salmonella Newport = tested on: Salmonella Newport
# Procedure: as §4
# Salmonella Heidelberg = tested on: Salmonella Heidelberg
# Procedure: as §4
# [3] = tested on: Salmonella Enteritidis (SE)
# Procedure: (§5) P1, P2, and P4 were heated for 6 min at 86°C ([21]) or treated with protease proteinase K (200 µg/ml) at 50°C for 30 min ([26]). Afterward, the treated and/or heated peptides at their respective MICs were evaluated in the inhibition assay with Salmonella. The protocol from above using the TECAN microplate reader was followed with the same controls.
# [4] = tested on: Salmonella Typhimurium (ST); settings: murium (ST)
# Procedure: as §5
MIC [1],MIC [2],"MIC (mM) against SE, No treatment [1]","Efficacy against Salmonella Saintpaul (concentration inhibiting completely, MIC) (Salmonella Saintpaul)","Efficacy against Salmonella Muenchen (concentration inhibiting completely, MIC) (Salmonella Muenchen)","Efficacy against Salmonella Javiana (concentration inhibiting completely, MIC) (Salmonella Javiana)","Efficacy against Salmonella Anatum (concentration inhibiting completely, MIC) (Salmonella Anatum)","Efficacy against Salmonella Albany (concentration inhibiting completely, MIC) (Salmonella Albany)","Efficacy against Salmonella Brenderup (concentration inhibiting completely, MIC) (Salmonella Brenderup)","Efficacy against Salmonella Newport (concentration inhibiting completely, MIC) (Salmonella Newport)","Efficacy against Salmonella Heidelberg (concentration inhibiting completely, MIC) (Salmonella Heidelberg)","MIC (mM) against SE, Heat treatment [3]","MIC (mM) against SE, Protease treatment [3]","MIC (mM) against ST, Heat treatment [4]","MIC (mM) against ST, Protease treatment [4]",Compound,further results
>18 mM,>18 mM,–,–,–,–,–,–,–,–,–,–,–,–,–,N=C(N)NCCC[C@H](NC(=O)[C@H](CCCNC(=N)N)NC(=O)[C@H](CCC(=O)O)NC(=O)[C@H](CCCNC(=N)N)NC(=O)[C@H](CCCNC(=N)N)NC(=O)[C@H](CO)NC(=O)[C@@H]1CCCN1C(=O)[C@@H](N)CC(N)=O)C(=O)O (H-NPSRRERR-OH),–
–,–,18 mM,18 mM,18 mM,18 mM,18 mM,18 mM,18 mM,18 mM,18 mM,18 mM,18 mM,18 mM,18 mM,CSCC[C@H](N)C(=O)N[C@@H](CC(C)C)C(=O)N[C@@H](CC(N)=O)C(=O)N[C@@H](CCC(=O)O)C(=O)N[C@@H](CCCNC(=N)N)C(=O)N[C@H](C(=O)N[C@@H](CCCCN)C(=O)O)C(C)C [Peptide P4] (H-MLNERVK-OH),–
12 mM,12 mM,–,–,–,–,–,–,–,–,–,–,–,–,–,NCCCC[C@H](NC(=O)[C@H](CC(N)=O)NC(=O)[C@H](CCC(=O)O)NC(=O)[C@H](CC(=O)O)NC(=O)[C@@H](N)CCCCN)C(=O)O [KDENK] (H-KDENK-OH),–
–,15 mM,–,–,–,–,–,–,–,–,–,–,–,–,–,NCCCC[C@H](NC(=O)[C@H](CCCCN)NC(=O)[C@H](CCC(=O)O)NC(=O)[C@H](CC(=O)O)NC(=O)[C@@H]1CCCN1)C(=O)O [PDEKK] (H-PDEKK-OH),–
–,–,15 mM,15 mM,15 mM,15 mM,15 mM,15 mM,15 mM,15 mM,15 mM,15 mM,15 mM,15 mM,15 mM,NCCCC[C@H](NC(=O)[C@H](CC(N)=O)NC(=O)[C@H](CCC(=O)O)NC(=O)[C@H](CC(=O)O)NC(=O)[C@@H]1CCCN1)C(=O)O [Peptide P2] (H-PDENK-OH),–
>18 mM,15 mM,–,–,–,–,–,–,–,–,–,–,–,–,–,N=C(N)NCCC[C@H](NC(=O)[C@H](CCCNC(=N)N)NC(=O)[C@H](CCC(=O)O)NC(=O)[C@H](CCCNC(=N)N)NC(=O)[C@H](CCCNC(=N)N)NC(=O)[C@H](CCCNC(=N)N)NC(=O)[C@@H]1CCCN1C(=O)[C@@H](N)CC(N)=O)C(=O)O (H-NPRRRERR-OH),–
15 mM,15 mM,–,–,–,–,–,–,–,–,–,–,–,–,–,NCCCC[C@H](NC(=O)[C@H](CCCCN)NC(=O)[C@H](CCC(=O)O)NC(=O)[C@H](CC(=O)O)NC(=O)[C@@H](N)CCCCN)C(=O)O [KDEKK] (H-KDEKK-OH),–
18 mM,15 mM,–,–,–,–,–,–,–,–,–,–,–,–,–,N=C(N)NCCC[C@H](NC(=O)[C@H](CCCNC(=N)N)NC(=O)[C@H](CCC(=O)O)NC(=O)[C@H](CCC(N)=O)NC(=O)[C@H](CCCNC(=N)N)NC(=O)[C@H](CCCNC(=N)N)NC(=O)[C@@H]1CCCN1C(=O)[C@@H](N)CC(N)=O)C(=O)O (H-NPRRQERR-OH),–
–,–,–,–,–,–,–,–,–,–,–,–,–,–,–,CC(C)[C@H](N)C(=O)N[C@@H](Cc1c[nH]cn1)C(=O)N[C@H](C(=O)N[C@@H](C)C(=O)N1CCC[C@H]1C(=O)N[C@@H](CCCCN)C(=O)O)[C@@H](C)O [Peptide P3] (H-VHTAPK-OH; N-terminus and C-terminus assumed),"Complete inhibition of ST growth ([2]; peptide 6, 12, 15 and 18 mM, 12 h, 37°C): Neither P3 nor P4 completely inhibited ST"
–,–,18 mM,18 mM,18 mM,18 mM,18 mM,18 mM,18 mM,18 mM,18 mM,18 mM,18 mM,18 mM,18 mM,N=C(N)NCCC[C@H](NC(=O)[C@H](CCCNC(=N)N)NC(=O)[C@H](CCC(=O)O)NC(=O)[C@H](CCC(N)=O)NC(=O)[C@H](CCCNC(=N)N)NC(=O)[C@H](CO)NC(=O)[C@@H]1CCCN1C(=O)[C@@H](N)CC(N)=O)C(=O)O [Peptide P1] (H-NPSRQERR-OH),–
